Values quoted from earlier work, collected in patent publication US10138195B2, “Organic compounds” (Givaudan, S. A., priority 2014, dated 2018).
Read-outs that look alike come from different tables or passages of the source.

What was measured:
[1] = system: reproductive organs of male dogs
[2] = rats
[3] = dogs
[4] = system: reproductive organs of male rats
[5] = system: primates
[6] = system: mice
[7] = system: guinea-pigs
[8] = system: male rats; conditions: male rats (Hunter et al.; Cagen et al.)
[9] = system: glucose synthesis and fatty acid synthesis; conditions: in vitro (McCune et al)

Effects in studies [5] | Effects in studies [6] | Effects in studies [7] | Structure (SMILES) | Effects on the reproductive organs [1] | Enzymatic degradation product [2] | Enzymatic degradation product [3] | Effects on the reproductive organs [4] | Testicular effects [8] | Effect on glucose synthesis and fatty acid synthesis [9]
No effects | No effects | No effects | CC(C=O)Cc1ccc(C(C)(C)C)cc1 (stereo not drawn) [Lilial™, 3-(4-tert-butylphenyl)-2-methylpropanal] | toxic effects on the reproductive organs | enzymatically degraded in rats and dogs to tert-butyl benzoic acid (t-BBA) | enzymatically degraded in rats and dogs to tert-butyl benzoic acid (t-BBA) | toxic effects on the reproductive organs | – | –
– | – | – | CC(C)(C)c1ccc(C(=O)O)cc1 [tert-butyl benzoic acid] | – | – | – | – | cause testicular effects | inhibit glucose synthesis and fatty acid synthesis
